Literature values, collected in patent publication US20230226006A1, “Compositions for the Treatment of Dry Eye and Methods of Use Thereof” (The Schepens Eye Research Institute, Inc., priority 2017, published 2023).

Solubility in organic solvents (organic solvents): well soluble
Solubility in water (water): slightly soluble
SMILES: C=CCN=C=S [Allyl isothiocyanate, 3-Isothiocyanato-1-propene]
